Results on 38 molecules are retold here after ChEMBL document CHEMBL1268940, “Synthesis and anticancer evaluation of thiazolyl-chalcones” (Bioorg Med Chem Lett, 2010).

The test system of one assay is PC-3. Description: Cytotoxicity against human PC3 cells by MTT assay. In kind it is functional, cell-based.
The next assay concerns NCI-H460. Description: Cytotoxicity against human NCI-H460 cells by MTT assay. In kind it is functional, cell-based. On the technique in general: Tetrazolium dyes change colour on reduction, which living cells bring about.
The subject of another assay is Bel-7402. Description: Cytotoxicity against human Bel7402 cells by MTT assay. It is filed as functional, cell-based.
A further assay has as its system BGC-823. Description: Cytotoxicity against human BGC823 cells by MTT assay. It is filed as functional, cell-based.
The test system of assay [1] is CCRF S-180. As to the kind of experiment: Anticancer activity against mouse S180 cells xenografted in ICR mouse assessed as tumor weight inhibition at 25 mg/kg, ip relative to control. It is filed as functional. The settings on record: CCRF S-180, ip, route intraperitoneal.
The subject of assay [2] is CCRF S-180. Description: Anticancer activity against mouse S180 cells xenografted in ICR mouse assessed as tumor weight inhibition at 50 mg/kg, ip relative to control. The settings on record: CCRF S-180, ip, route intraperitoneal. It is filed as functional.
In assay [3] the test system is CCRF S-180. As to the kind of experiment: Anticancer activity against mouse S180 cells xenografted in ICR mouse assessed as tumor weight inhibition at 100 mg/kg, ip relative to control. The settings on record: CCRF S-180, ip, read-out: INH.

For `COc1ccc(/C=C/C(=O)c2sc(Nc3ccc(Cl)c(Cl)c3)nc2C)cc1`, the IC50 with PC-3, in the assay on NCI-H460, in the assay on Bel-7402 and in the assay on BGC-823 was greater than 25 µM throughout.

Take `COc1cccc(/C=C/C(=O)c2sc(Nc3ccc(Cl)c(Cl)c3)nc2C)c1`: the IC50 – broadly, the concentration at which inhibition is half-maximal – is 10.1 µM in the assay with PC-3, 20.1 µM in the assay with NCI-H460, greater than 25 µM in the assay on Bel-7402 and 8.35 µM in the assay with BGC-823.

For the molecule `COc1cc(/C=C/C(=O)c2sc(Nc3cccc(Cl)c3)nc2C)cc(OC)c1OC`, the IC50 in the assay on PC-3 is greater than 25 µM; in the assay with NCI-H460, greater than 25 µM; in the assay on Bel-7402, 14 µM; in the assay on BGC-823, 11.6 µM.

In the case of `COc1cc(/C=C/C(=O)c2sc(Nc3ccc(F)c(Cl)c3)nc2C)cc(OC)c1OC`, the figures for the IC50 in the assay with NCI-H460 and with BGC-823 were 6.31 µM and 9.7 µM, respectively. Further, the inhibition in vivo at 25 mg/kg with CCRF S-180 [1] is 23%. Besides, the inhibition in vivo at 50 mg/kg with CCRF S-180 [2] was determined as 22.6%.

Regarding `Cc1nc(Nc2ccc(Cl)c(Cl)c2)sc1C(=O)/C=C/c1ccc2c(c1)OCO2`, the IC50 in the assay on PC-3, in the assay with NCI-H460, in the assay with Bel-7402 and with BGC-823 was greater than 25 µM each time.

In the case of `COc1cc(/C=C/C(=O)c2sc(Nc3ccc(Cl)c(Cl)c3)nc2C)cc(OC)c1OC`, the 50% inhibitory concentration (IC50) with PC-3 is 19.3 µM; in the assay on NCI-H460, greater than 25 µM; in the assay with Bel-7402, greater than 25 µM; with BGC-823 it was greater than 25 µM. Further, in the assay with CCRF S-180 [2], the inhibition in vivo at 50 mg/kg was found to be 25.1%.

In the case of `Cc1ccc(Nc2nc(C)c(C(=O)/C=C/c3ccc4c(c3)OCO4)s2)cc1`, the IC50 in the assay on PC-3, in the assay on NCI-H460, in the assay with Bel-7402 and in the assay on BGC-823 was greater than 25 µM throughout.

As for `Cc1ccc(Nc2nc(C)c(C(=O)/C=C/c3ccccc3)s2)cc1`, the IC50 in the assay on PC-3, with NCI-H460, with Bel-7402 and in the assay on BGC-823 was greater than 25 µM each time.

On to `Cc1ccc(Nc2nc(C)c(C(=O)/C=C/c3ccc(Cl)cc3)s2)cc1`, for which the IC50 in the assay on PC-3, in the assay with NCI-H460, with Bel-7402 and with BGC-823 was greater than 25 µM each time.

For `COc1cccc(/C=C/C(=O)c2sc(Nc3ccc(C)cc3)nc2C)c1`, the IC50 in the assay on PC-3, with NCI-H460, in the assay with Bel-7402 and with BGC-823 was greater than 25 µM each time.

As to `Cc1ccc(Nc2nc(C)c(C(=O)/C=C/c3ccccc3Cl)s2)cc1`, the IC50 in the assay with PC-3, with NCI-H460, with Bel-7402 and with BGC-823 was greater than 25 µM each time.

In the case of `COc1cc(/C=C/C(=O)c2sc(Nc3ccc(C)cc3)nc2C)cc(OC)c1OC`, the IC50 in the assay on PC-3, in the assay on NCI-H460, with Bel-7402 and in the assay with BGC-823 was greater than 25 µM in each case.

As for `COc1cccc(/C=C/C(=O)c2sc(Nc3ccccc3)nc2C)c1`, the half-inhibitory concentration (IC50) was greater than 25 µM with PC-3, greater than 25 µM in the assay with NCI-H460, greater than 25 µM with Bel-7402 and 14.3 µM in the assay with BGC-823.

As to `Cc1nc(Nc2ccccc2)sc1C(=O)/C=C/c1ccccc1`, the half-maximal inhibitory concentration (IC50) in the assay on PC-3 is greater than 25 µM; with NCI-H460 it was greater than 25 µM; in the assay with Bel-7402 it was greater than 25 µM; in the assay with BGC-823, 19.5 µM.

As to `Cc1nc(Nc2ccccc2)sc1C(=O)/C=C/c1ccccc1Cl`, the IC50 in the assay with PC-3 is greater than 25 µM; in the assay with NCI-H460, greater than 25 µM; in the assay on Bel-7402, greater than 25 µM; in the assay on BGC-823, 22.8 µM.

Consider `Cc1nc(Nc2ccccc2)sc1C(=O)/C=C/c1ccc(Cl)cc1`, for which the half-inhibitory concentration (IC50) in the assay with PC-3, in the assay with NCI-H460, in the assay with Bel-7402 and in the assay on BGC-823 was greater than 25 µM in each case.

With `COc1cc(/C=C/C(=O)c2sc(Nc3ccccc3)nc2C)cc(OC)c1OC`, the IC50 in the assay with PC-3, in the assay on NCI-H460, with Bel-7402 and in the assay with BGC-823 was greater than 25 µM throughout.

In the case of `Cc1ccccc1Nc1nc(C)c(C(=O)/C=C/c2ccc(Cl)cc2)s1`, the IC50 with PC-3, with NCI-H460, in the assay with Bel-7402 and with BGC-823 was greater than 25 µM in each case.

For the molecule `Cc1ccccc1Nc1nc(C)c(C(=O)/C=C/c2ccccc2Cl)s1`, the half-inhibitory concentration (IC50) with PC-3, in the assay with NCI-H460, in the assay on Bel-7402 and in the assay with BGC-823 was greater than 25 µM each time.

Turning to `COc1cccc(/C=C/C(=O)c2sc(Nc3ccccc3C)nc2C)c1`, the half-inhibitory concentration (IC50) with PC-3, in the assay on NCI-H460, in the assay with Bel-7402 and in the assay with BGC-823 was greater than 25 µM in each case.

`Cc1ccccc1Nc1nc(C)c(C(=O)/C=C/c2ccccc2)s1`: the IC50 in the assay with PC-3, in the assay with NCI-H460, in the assay with Bel-7402 and in the assay with BGC-823 was greater than 25 µM each time.

For `COc1cc(/C=C/C(=O)c2sc(Nc3ccccc3C)nc2C)cc(OC)c1OC`, the IC50 in the assay with PC-3 is greater than 25 µM; in the assay on NCI-H460 it was 6.32 µM; with Bel-7402 it was 10.3 µM; with BGC-823, 5.4 µM.

As to `COc1cccc(/C=C/C(=O)c2sc(Nc3cccc(C)c3)nc2C)c1`, the IC50 in the assay with PC-3, in the assay with NCI-H460, in the assay on Bel-7402 and in the assay on BGC-823 was greater than 25 µM in each case.

Consider `Cc1cccc(Nc2nc(C)c(C(=O)/C=C/c3ccccc3)s2)c1`, for which the 50% inhibitory concentration (IC50) in the assay with PC-3 was 11.7 µM; in the assay with NCI-H460, 21.8 µM; in the assay on Bel-7402, greater than 25 µM; in the assay on BGC-823, 13.6 µM.

`Cc1cccc(Nc2nc(C)c(C(=O)/C=C/c3ccc(Cl)cc3)s2)c1`: the IC50 in the assay with PC-3, in the assay on NCI-H460, with Bel-7402 and in the assay on BGC-823 was greater than 25 µM throughout.

With `COc1cc(/C=C/C(=O)c2sc(Nc3cccc(C)c3)nc2C)cc(OC)c1OC`, the IC50 is greater than 25 µM with PC-3, 19.8 µM with NCI-H460, greater than 25 µM with Bel-7402 and 17.2 µM with BGC-823.

`Cc1cccc(Nc2nc(C)c(C(=O)/C=C/c3ccccc3Cl)s2)c1`: the IC50 with PC-3 was 22.2 µM; in the assay with NCI-H460, greater than 25 µM; in the assay on Bel-7402 it was greater than 25 µM; in the assay with BGC-823, 24.2 µM.

`Cc1nc(Nc2ccc(Cl)cc2)sc1C(=O)/C=C/c1ccccc1`: the IC50 in the assay with PC-3 is 24.6 µM; with NCI-H460, greater than 25 µM; in the assay with Bel-7402 it was greater than 25 µM; with BGC-823 it was greater than 25 µM.

Regarding `COc1cccc(/C=C/C(=O)c2sc(Nc3ccc(Cl)cc3)nc2C)c1`, the half-inhibitory concentration (IC50) in the assay with PC-3, with NCI-H460, in the assay with Bel-7402 and in the assay on BGC-823 was greater than 25 µM throughout.

Take `Cc1nc(Nc2ccc(Cl)cc2)sc1C(=O)/C=C/c1ccc(Cl)cc1`: the IC50 in the assay on PC-3, in the assay with NCI-H460, in the assay on Bel-7402 and in the assay on BGC-823 was greater than 25 µM throughout.

Consider `COc1cc(/C=C/C(=O)c2sc(Nc3ccc(Cl)cc3)nc2C)cc(OC)c1OC`, for which the IC50 is greater than 25 µM in the assay with PC-3, 22 µM with NCI-H460, greater than 25 µM in the assay on Bel-7402 and greater than 25 µM in the assay with BGC-823.

With `COc1ccc(/C=C/C(=O)c2sc(Nc3ccc(Cl)cc3)nc2C)cc1`, the IC50 in the assay on PC-3, with NCI-H460, in the assay on Bel-7402 and with BGC-823 was greater than 25 µM each time.

`COc1cccc(/C=C/C(=O)c2sc(Nc3cccc(Cl)c3)nc2C)c1`: the IC50 in the assay with PC-3, in the assay on NCI-H460 and with Bel-7402 was greater than 25 µM in each case.

As for `Cc1nc(Nc2ccc(Cl)c(Cl)c2)sc1C(=O)/C=C/c1ccccc1`, the IC50 in the assay with PC-3 was 7.99 µM; with NCI-H460, 22.7 µM; in the assay with Bel-7402, 21.5 µM; in the assay on BGC-823, 10.6 µM.

For `Cc1nc(Nc2ccc(Cl)c(Cl)c2)sc1C(=O)/C=C/c1ccc(Cl)cc1`, the IC50 is greater than 25 µM with PC-3, greater than 25 µM in the assay on NCI-H460, greater than 25 µM in the assay with Bel-7402 and 22.7 µM with BGC-823.

As for `Cc1nc(Nc2cccc(Cl)c2)sc1C(=O)/C=C/c1ccccc1`, the concentration for half-maximal inhibition (IC50) in the assay on PC-3, with NCI-H460, in the assay on Bel-7402 and in the assay with BGC-823 was greater than 25 µM each time.

As to `Cc1nc(Nc2cccc(Cl)c2)sc1C(=O)/C=C/c1ccc(Cl)cc1`, the concentration for half-maximal inhibition (IC50) with PC-3, with NCI-H460, with Bel-7402 and in the assay on BGC-823 was greater than 25 µM each time.

Consider `O=P1(N(CCCl)CCCl)NCCCO1` (centres undefined) [CYCLOPHOSPHAMIDE ANHYDROUS], for which the inhibition in vivo at 100 mg/kg in the assay with CCRF S-180 [3] amounted to 91.7%.
